Calls of active or inactive are those of the source. The calls are words filed in the database; no cut-off is given here.
How the values were obtained:
Assay type in all cases: functional
MDA-MB-231 = assay: Cytotoxicity against human MDA-MB-231 cells at 10 uM after 48 hrs by SRB assay; conditions: MDA-MB-231, 48 h, read-out: GI
[1] = Cytotoxicity against human SF268 cells at 10 uM after 48 hrs by SRB assay; conditions: SF-268, 48 h, read-out: GI
SK-MEL-5 = assay: Cytotoxicity against human SK-MEL-5 cells at 10 uM after 48 hrs by SRB assay; conditions: SK-MEL-5, 48 h, read-out: GI
[2] = Cytotoxicity against human SW620 cells at 10 uM after 48 hrs by SRB assay; conditions: SW-620, 48 h, read-out: GI
U-251 = assay: Cytotoxicity against human U251 cells at 10 uM after 48 hrs by SRB assay; conditions: U-251, 48 h, read-out: GI
[3] = Cytotoxicity against human SF539 cells at 10 uM after 48 hrs by SRB assay; conditions: SF-539, 48 h, read-out: GI
[4] = Cytotoxicity against human IGROV1 cells at 10 uM after 48 hrs by SRB assay; conditions: IGROV-1, 48 h, read-out: GI
KM12 = assay: Cytotoxicity against human KM12 cells at 10 uM after 48 hrs by SRB assay; conditions: KM12, 48 h, read-out: GI
[5] = Cytotoxicity against human MOLT4 cells at 10 uM after 48 hrs by SRB assay; conditions: MOLT-4, 48 h, read-out: GI
[6] = Cytotoxicity against human HCT116 cells at 10 uM after 48 hrs by SRB assay; conditions: HCT-116, 48 h, read-out: GI
MCF7 = assay: Cytotoxicity against human MCF7 cells at 10 uM after 48 hrs by SRB assay; conditions: MCF7, 48 h, read-out: GI
[7] = Cytotoxicity against human HCT15 cells at 10 uM after 48 hrs by SRB assay; conditions: HCT-15, 48 h, read-out: GI
[8] = Cytotoxicity against human HCC2998 cells at 10 uM after 48 hrs by SRB assay; conditions: HCC 2998, 48 h, read-out: GI
786-0 = assay: Cytotoxicity against human 786-0 cells at 10 uM after 48 hrs by SRB assay; conditions: 786-0, 48 h, read-out: GI
[9] = Cytotoxicity against human LOXIMVI cells at 10 uM after 48 hrs by SRB assay; conditions: LOX IMVI, read-out: GI
[10] = Cytotoxicity against human OVCAR4 cells at 10 uM after 48 hrs by SRB assay; conditions: OVCAR-4, 48 h, read-out: GI
[11] = Cytotoxicity against human OVCAR8 cells at 10 uM after 48 hrs by SRB assay; conditions: OVCAR-8, 48 h, read-out: GI
NCI-H460 = assay: Cytotoxicity against human NCI-H460 cells at 10 uM after 48 hrs by SRB assay; conditions: NCI-H460, 48 h, read-out: GI
[12] = Cytotoxicity against human HOP62 cells at 10 uM after 48 hrs by SRB assay; conditions: HOP-62, 48 h, read-out: GI
SR = assay: Cytotoxicity against human SR cells at 10 uM after 48 hrs by SRB assay; conditions: read-out: GI
NCI-H522 = assay: Cytotoxicity against human NCI-H522 cells at 10 uM after 48 hrs by SRB assay; conditions: NCI-H522, 48 h, read-out: GI
[13] = Cytotoxicity against human OVCAR3 cells at 10 uM after 48 hrs by SRB assay; conditions: OVCAR-3, 48 h, read-out: GI
[14] = Cytotoxicity against human UO31 cells at 10 uM after 48 hrs by SRB assay; conditions: UO-31, 48 h, read-out: GI
[15] = Cytotoxicity against human NCI-ADR-RES cells at 10 uM after 48 hrs by SRB assay; conditions: read-out: GI
[16] = Cytotoxicity against human BT549 cells at 10 uM after 48 hrs by SRB assay; conditions: BT-549, 48 h, read-out: GI
CCRF-CEM = assay: Cytotoxicity against human CCRF-CEM cells at 10 uM after 48 hrs by SRB assay
MDA-MB-435 = assay: Cytotoxicity against human MDA-MB-435 cells at 10 uM after 48 hrs by SRB assay; conditions: MDA-MB-435, 48 h, read-out: GI
CAKI-1 = assay: Cytotoxicity against human Caki1 cells at 10 uM after 48 hrs by SRB assay
[17] = Cytotoxicity against human HOP92 cells at 10 uM after 48 hrs by SRB assay; conditions: HOP-92, 48 h, read-out: GI
SN12C = assay: Cytotoxicity against human SN12C cells at 10 uM after 48 hrs by SRB assay; conditions: read-out: GI
SK-MEL-2 = assay: Cytotoxicity against human SK-MEL-2 cells at 10 uM after 48 hrs by SRB assay; conditions: SK-MEL-2, 48 h, read-out: GI
[18] = Cytotoxicity against human DU145 cells at 10 uM after 48 hrs by SRB assay; conditions: DU-145, 48 h, read-out: GI
T47D = assay: Cytotoxicity against human T47D cells at 10 uM after 48 hrs by SRB assay; conditions: read-out: GI
OVCAR-5 = assay: Cytotoxicity against human OVCAR5 cells at 10 uM after 48 hrs by SRB assay
[19] = Cytotoxicity against human UACC257 cells at 10 uM after 48 hrs by SRB assay; conditions: UACC-257, 48 h, read-out: GI
[20] = Cytotoxicity against human TK10 cells at 10 uM after 48 hrs by SRB assay; conditions: TK-10, 48 h, read-out: GI
Malme-3M = assay: Cytotoxicity against human MALME-3M cells at 10 uM after 48 hrs by SRB assay; conditions: read-out: GI
HT-29 = assay: Cytotoxicity against human HT-29 cells at 10 uM after 48 hrs by SRB assay; conditions: HT-29, 48 h, read-out: GI
SK-MEL-28 = assay: Cytotoxicity against human SK-MEL-28 cells at 10 uM after 48 hrs by SRB assay; conditions: SK-MEL-28, 48 h, read-out: GI
A498 = assay: Cytotoxicity against human A498 cells at 10 uM after 48 hrs by SRB assay; conditions: A498, 48 h, read-out: GI
[21] = Cytotoxicity against human SF295 cells at 10 uM after 48 hrs by SRB assay; conditions: SF-295, 48 h, read-out: GI
[22] = Cytotoxicity against human Hs 578T cells at 10 uM after 48 hrs by SRB assay; conditions: read-out: GI
[23] = Cytotoxicity against human COLO205 cells at 10 uM after 48 hrs by SRB assay; conditions: COLO 205, 48 h, read-out: GI
NCI-H226 = assay: Cytotoxicity against human NCI-H226 cells at 10 uM after 48 hrs by SRB assay; conditions: NCI-H226, 48 h, read-out: GI
A549 = assay: Cytotoxicity against human A549 cells at 10 uM after 48 hrs by SRB assay; conditions: A549, 48 h, read-out: GI
[24] = Cytotoxicity against human SKOV3 cells at 10 uM after 48 hrs by SRB assay; conditions: SK-OV-3, 48 h, read-out: GI
[25] = Cytotoxicity against human RXF393 cells at 10 uM after 48 hrs by SRB assay; conditions: RXF 393, 48 h, read-out: GI
MDA-MB-468 = assay: Cytotoxicity against human MDA-MB-468 cells at 10 uM after 48 hrs by SRB assay; conditions: MDA-MB-468, 48 h, read-out: GI
[26] = Cytotoxicity against human HL-60(TB) cells at 10 uM after 48 hrs by SRB assay; conditions: HL-60, 48 h, read-out: GI
[27] = Cytotoxicity against human RPMI8226 cells at 10 uM after 48 hrs by SRB assay; conditions: RPMI-8226, 48 h, read-out: GI
M14 = assay: Cytotoxicity against human M14 cells at 10 uM after 48 hrs by SRB assay; conditions: M14, 48 h, read-out: GI
[28] = Cytotoxicity against human SNB19 cells at 10 uM after 48 hrs by SRB assay; conditions: SNB-19, 48 h, read-out: GI
K562 = assay: Cytotoxicity against human K562 cells at 10 uM after 48 hrs by SRB assay; conditions: K562, 48 h, read-out: GI
ACHN = assay: Cytotoxicity against human ACHN cells at 10 uM after 48 hrs by SRB assay; conditions: read-out: GI
[29] = Cytotoxicity against human SNB75 cells at 10 uM after 48 hrs by SRB assay; conditions: SNB-75, 48 h, read-out: GI

In the case of Cc1nc2cc(Nc3nc(Nc4ccc(F)cc4)nc(-c4ccccc4)n3)ccc2n1Cc1ccccc1, the inhibition of growth at 10 µM (MDA-MB-231) is reported as 9.76%, the inhibition of growth at 10 µM [1] is reported as 23.8% and the inhibition of growth at 10 µM (SK-MEL-5) is reported as 14.5%. The inhibition of growth at 10 µM [2] was 15.4%, the inhibition of growth at 10 µM (U-251) was 36.6% and the inhibition of growth at 10 µM [3] was 0.21%. For the same compound, the inhibition of growth at 10 µM [4] was 31%, the inhibition of growth at 10 µM (KM12) was 39.8% and the inhibition of growth at 10 µM [5] was 41.8%. For the same compound, the inhibition of growth at 10 µM [6] was 39.7%, the inhibition of growth at 10 µM (MCF7) was 54.9% and the inhibition of growth at 10 µM [7] was 32.4%. It also gave an inhibition of growth at 10 µM [8] of 12%, an inhibition of growth at 10 µM (786-0) of 18.4% and an inhibition of growth at 10 µM [9] of 12.3%. It also gave an inhibition of growth at 10 µM [10] of 39.8%, an inhibition of growth at 10 µM [11] of 32.2% and an inhibition of growth at 10 µM (NCI-H460) of 16.8%. For the same compound, the inhibition of growth at 10 µM [12] was 5.32%, the inhibition of growth at 10 µM (SR) was 68.2% and the inhibition of growth at 10 µM (NCI-H522) was 24.1%. For the same compound, the inhibition of growth at 10 µM [13] was 18.8%, the inhibition of growth at 10 µM [14] was 43.4% and the inhibition of growth at 10 µM [15] was 29.5%. The inhibition of growth at 10 µM [16] was 4.6%, the “growth inhibition (GI)” value (CCRF-CEM) was “inactive” and the inhibition of growth at 10 µM (MDA-MB-435) was 40%. For the same compound, the “growth inhibition (GI)” value (CAKI-1) was “inactive”, the inhibition of growth at 10 µM [17] was 35.6% and the inhibition of growth at 10 µM (SN12C) was 21.9%. For the same compound, the inhibition of growth at 10 µM (SK-MEL-2) was 25.4%, the inhibition of growth at 10 µM [18] was 2.93% and the inhibition of growth at 10 µM (T47D) was 55.5%. For the same compound, the “growth inhibition (GI)” value (OVCAR-5) was “inactive”, the inhibition of growth at 10 µM [19] was 18.7% and the inhibition of growth at 10 µM [20] was 0.81%. The inhibition of growth at 10 µM (Malme-3M) was 11.4%, the inhibition of growth at 10 µM (HT-29) was 40.6% and the inhibition of growth at 10 µM (SK-MEL-28) was 5.63%. For the same compound, the inhibition of growth at 10 µM (A498) was 23.2%, the inhibition of growth at 10 µM [21] was 17.3% and the inhibition of growth at 10 µM [22] was 20.4%. For the same compound, the inhibition of growth at 10 µM [23] was 29.5%, the inhibition of growth at 10 µM (NCI-H226) was 19.3% and the inhibition of growth at 10 µM (A549) was 32.5%. The inhibition of growth at 10 µM [24] was 1.78%, the inhibition of growth at 10 µM [25] was 30.9% and the inhibition of growth at 10 µM (MDA-MB-468) was 27.6%. For the same compound, the inhibition of growth at 10 µM [26] was 36.3%, the inhibition of growth at 10 µM [27] was 53% and the inhibition of growth at 10 µM (M14) was 34.1%. The inhibition of growth at 10 µM [28] was 31.5%, the inhibition of growth at 10 µM (K562) was 38.2% and the inhibition of growth at 10 µM (ACHN) was 23.6%. It also gave an inhibition of growth at 10 µM [29] of 28.4%.
